Tests used:
[1] = tested on: collagen type I in fibroblast cells (PCS-201-012); assay: Collagen type I biosynthesis by flow cytometry; format: cell-based, human; settings: 50 μg/mL, 24 h; control 1822 ± 62.2
Method: The normal human dermal fibroblast cell line (PCS-201-012) was cultured in DMEM blended with 10% fetal bovine serum (FBS), 10 μg/mL streptomycin, and 10 units/mol penicillin. The cells were cultured in 5% CO2 and fully humidified at 37°C. All tested compounds were dissolved at a final vehicle (DMSO) concentration of not more than 0.5% (v/v). Cells cultured in drug-free DMEM were used as controls, and cells treated with DMSO alone were used as solvent controls. All extracts (JM1–JM6) and the main components of the tested extracts (9, 12, and 22) were analyzed at the following concentrations: 10, 25, 50, 100, 200, and 300 μg/mL. The effect of the tested extracts and fractions (JM1–JM6), as well as their main compounds (9, 12, and 22) on collagen type I biosynthesis was determined using a method of cytometric staining of the surface anti-collagen type I according to the manufacturer’s protocols. Fibroblasts were incubated for 24 h at 37°C with the test samples at concentrations of 10, 25, 50, 100, 200, and 300 μg/mL. Allantoin (50 μg/mL) was used as a positive control. After incubation, fibroblasts were washed with PBS, trypsinized, resuspended in DMEM and centrifuged (1,200 rpm, 10 min, 4°C). The supernatant was removed, and the cells were washed with 2 mL of stain buffer. Then, the cells were incubated for 30 min on ice with 100 µL of stain buffer and 1 µL of antibody. After complete incubation, 2 mL of stain buffer was added. After consecutive centrifugation (1,200 rpm, 10 min, 4°C), the supernatant was removed, the cells were resuspended in 300 µL of buffer and then immediately subjected to analysis on a flow cytometer (BD FACSCanto II flow cytometer, San Jose, CA, United States) calibrated with BD Cytometer Setup and Tracking beads (BD Biosciences, San Diego, CA, United States). The median fluorescence intensity was calculated using FACSDiva software (BD Biosciences Systems, San Jose, CA, United States) and analyzed by FCS Express 7 software (DeNovo Software, Pasadena, CA, United States).

[2] = tested on: IL-1β in fibroblast cells (PCS-201-012); assay: Cytometric Bead Array, IL-1β secretion; format: cell-based, human; settings: 50 μg/mL, 24 h, positive control
Method: (§1) The normal human dermal fibroblast cell line (PCS-201-012) was cultured in DMEM blended with 10% fetal bovine serum (FBS), 10 μg/mL streptomycin, and 10 units/mol penicillin. The cells were cultured in 5% CO2 and fully humidified at 37°C. All tested compounds were dissolved at a final vehicle (DMSO) concentration of not more than 0.5% (v/v). Cells cultured in drug-free DMEM were used as controls, and cells treated with DMSO alone were used as solvent controls. All extracts (JM1–JM6) and the main components of the tested extracts (9, 12, and 22) were analyzed at the following concentrations: 10, 25, 50, 100, 200, and 300 μg/mL. The effect of the tested extracts and fractions (JM1–JM6) as well as 9, 12, and 22 on cytokine (IL-1β, IL-6 IL-8, IL-10, IL-12p70 and TNF) secretion was determined using the Cytometric Bead Array (CBA) Human Inflammatory Cytokine Kit according to the manufacturer’s protocols. After 24 h of incubation with the test samples at concentrations of 10, 25, 50, 100, 200, and 300 μg/mL, fibroblast cells were washed with PBS, trypsinized, resuspended in DMEM and centrifuged (1,200 rpm, 10 min, 4°C). The supernatant was then replaced with 50 μL of assay diluent with the addition of 50 μL of assay beads and 50 μL of PE-labeled antibodies (detection reagent) from the human inflammatory cytokine kit. Incubation was performed for 3 h at room temperature without daylight, after which the fibroblast cells were washed and centrifuged (1,200 rpm, 5 min, 4°C). The cell pellet was resuspended in 300 μL of wash buffer and then immediately subjected to analysis by FCAP Array v3 software on a BD FACSCanto II flow cytometer (both from BD Biosciences Systems, San Jose, CA, United States) calibrated with BD Cytometer Setup and Tracking beads (BD Biosciences, San Diego, CA, United States).

[3] = tested on: IL-8 in fibroblast cells (PCS-201-012); assay: Cytometric Bead Array, IL-8 secretion; format: cell-based, human; settings: 50 μg/mL, 24 h, positive control
Method: as §1

[4] = tested on: IL-6 in fibroblast cells (PCS-201-012); assay: Cytometric Bead Array, IL-6 secretion; format: cell-based, human; settings: 50 μg/mL, 24 h, positive control
Method: as §1

[5] = DPPH radical-scavenging assay; settings: 30 min, absorbance 517 nm, mean ± SD
Method: All extracts (JM1–JM6) and main components of the tested extracts (9, 12, and 22) were isolated and identified as previously described ([Juszczak et al., 2021]). A total of 130 μL of sample solution at various concentrations was mixed with 70 μL of DPPH (0.2 mg/mL) in a 96-well plate. Then, the reaction mixture was incubated in the dark at room temperature. After 30 min, the absorbance was recorded at 517 nm using a microplate reader (BioTek Instruments microplate spectrophotometer EPOCH 2, Oxfordshire, United Kingdom). A blank solution was prepared by mixing methanol and DPPH solution. Trolox was used as a positive control. The experiment was performed in triplicate. RSA(%)=(C-S)/C×100% where C is the negative control and S is the sample. Concentration of the tested samples, which scavenges 50% of free radicals present in the solution (IC50), was calculated.

NC(=O)NC1NC(=O)NC1=O (centres unmarked) [allantoin, reference compound]
collagen type I content, median fluorescence intensity (MFI) [1]: 1,494 ± 2.8 | IL-1β levels (in words) [2]: stimulation of proinflammatory IL-1β levels | IL-8 expression (in words) [3]: decrease in IL-8 expression | IL-6 (in words) [4]: upregulation of IL-6

Cc1c(C)c2c(c(C)c1O)CCC(C)(C(=O)O)O2 (centres unmarked) [Trolox, reference compound]
DPPH, IC50 [5]: 58.6 ± 0.1 µg/mL
